Test results as given in US9828375B2, “4-position substituted pyrazolopyrimidine derivative, and use thereof in drug preparation” (Guangxi Wuzhou Pharmaceuticals (Group) Co., Ltd., priority 2012, dated 2017).

Experiments:
[1] = tested on: human malignant melanoma cell line WM2664
Protocol: The purpose of the experiment was to test the in vivo anti-tumor effect of the compound of the invention. […] The cell line used was human malignant melanoma cell line WM2664. The drug (sorafenib) undergoing anti-melanoma clinical trial was used as the positive control.
BALB/C nude mice at age of 6 to 8 weeks were used, and WM2664 cells were inoculated at the subcutaneous posterior ribs of the mice at a concentration of 5×106/0.1 mL/mouse; after the tumors grew to 200-300 mm^3 (for about 15 days), mice (n=6) were grouped and subject to oral intragastric administration.
Observation targets: Mouse weight and long and short diameters of tumor were measured every 3 days, and tumor volume (length×width^2×0.52) was calculated to observe for diarrhea, convulsion, rash, significant weight loss and other reactions.

[2] = tested on: human colorectal carcinoma cell line HT29; assay: In vivo anti-tumor experiment, nude mouse-subcutaneous human colorectal carcinoma HT29 model; set-up: species or system BALB/C nude mice
Text: (§1) The cell lines used were human colorectal carcinoma cell line HT29 and human glioma cell line U251.

[3] = tested on: human glioma cell line U251; assay: In vivo anti-tumor experiment, nude mouse-subcutaneous human glioma U251 model; set-up: species or system BALB/C nude mice
Text: as §1

[4] = daily dose of 30 mg/kg or above, oral
[5] = nude mice, 15-60 mg/kg q.d. oral

Compound	effect compared with sorafenib ([1]; 4a-2 25 mg/kg/d vs sorafenib at daily dose of 50 mg/kg)	in vivo tumor growth inhibition effect ([1]; dose of 25 mg/kg/d, oral, WM2664 (BRAF V600D) model)	in vivo tumor growth inhibition effect [2, 4]	weight loss, rash, diarrhea and other adverse reactions during administration [2, 5]	in vivo tumor growth inhibition effect [3, 4]	weight loss, rash, diarrhea and other adverse reactions during administration [3, 5]
O=C(Nc1ccc(Oc2ncnc3[nH]ncc23)cc1)Nc1ccc(Cl)c(C(F)(F)F)c1 [4a-2]	more effective than sorafenib	obviously inhibit tumor growth	–	–	–	–
O=C(Nc1ccc(Oc2ncnc3[nH]ncc23)cc1)Nc1cccc(C(F)(F)F)c1 [4a-6]	–	–	obviously inhibit tumor growth	not found	obviously inhibit tumor growth	not found
